In patent publication US7507864B2, “Method for the synthesis of curcumin analogues” (Salisbury University, priority 2006, dated 2009):

Experiment: Solubility in organic solvents
Type: physicochemical
Details: for solubility in acetone: solvent acetone; for solubility in ethanol: solvent ethanol; for solubility in ethyl acetate: solvent ethyl acetate; for solubility in isobutyl acetate: solvent isobutyl acetate
Excerpt: Curcumin is a bright red product once purified and maintains the vanilla fragrance due to the presence of methoxy groups from the starting product vanillin. It is soluble in acetone, ethyl acetate, ethanol, and isobutyl acetate. The solubility of bisdemethoxycurcumin, however, is slightly different. It is very soluble in ethanol and isobutyl acetate but acetone and ethyl acetate solubility is limited. Bisdemethoxycurcumin maintains a pumpkin-orange appearance and is more crystalline in nature than curcumin.

Row | solubility in acetone | solubility in ethanol | solubility in ethyl acetate | solubility in isobutyl acetate | SMILES
1 | soluble | soluble | soluble | soluble | COc1cc(/C=C/C(=O)CC(=O)/C=C/c2ccc(O)c(OC)c2)ccc1O [Curcumin, 1,7-bis(4-hydroxy-3-methoxyphenyl)-1,6-heptadiene-3,5-dione]
2 | limited | very soluble | limited | very soluble | O=C(/C=C(O)/C=C/c1ccc(O)cc1)/C=C/c1ccc(O)cc1 [bisdemethoxycurcumin, 1,7-bis-(4-hydroxyphenyl)-1,6-heptadiene-3,5-dione]
